In ChEMBL document CHEMBL1201862, “PubChem BioAssay data set” (2004):
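Exposure lasted 48 hours, with cells grown in 96-well plates and compounds tested at five concentrations. Abbreviation: GI50, concentration required for 50% inhibition of growth.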 Calls of active or inactive are those of the source. No stated cut-off is given here; in the data, active = GI50 up to about 1.1 µM and inactive = higher.

Columns and labels:
Test in all cases: NCI-60 cell line screen, 48 h
786-0 = test system: 786-0
A498 = test system: A498
A549 = test system: A549
ACHN = test system: ACHN
BT-549 = test system: BT-549
CAKI-1 = test system: CAKI-1
CCRF-CEM = test system: CCRF-CEM
COLO 205 = test system: COLO 205
DU-145 = test system: DU-145
EKVX = test system: EKVX
HCC 2998 = test system: HCC 2998
HCT-116 = test system: HCT-116
HCT-15 = test system: HCT-15
HL-60 = test system: HL-60
HOP-62 = test system: HOP-62
HOP-92 = test system: HOP-92
HT-29 = test system: HT-29
Hs-578T = test system: Hs-578T
IGROV-1 = test system: IGROV-1
K562 = test system: K562
KM12 = test system: KM12
M14 = test system: M14
MCF7 = test system: MCF7
MDA-MB-231 = test system: MDA-MB-231
MDA-MB-435 = test system: MDA-MB-435
MOLT-4 = test system: MOLT-4
NCI-H226 = test system: NCI-H226
NCI-H23 = test system: NCI-H23
NCI-H460 = test system: NCI-H460
NCI-H522 = test system: NCI-H522
NCI/ADR-RES = test system: NCI/ADR-RES
OVCAR-3 = test system: OVCAR-3
OVCAR-4 = test system: OVCAR-4
OVCAR-5 = test system: OVCAR-5
OVCAR-8 = test system: OVCAR-8
PC-3 = test system: PC-3
RPMI-8226 = test system: RPMI-8226
RXF 393 = test system: RXF 393
SF-268 = test system: SF-268
SF-295 = test system: SF-295
SF-539 = test system: SF-539
SK-MEL-28 = test system: SK-MEL-28
SK-MEL-2 = test system: SK-MEL-2
SK-MEL-5 = test system: SK-MEL-5
SK-OV-3 = test system: SK-OV-3
SN12C = test system: SN12C
SNB-19 = test system: SNB-19
SNB-75 = test system: SNB-75
SR = test system: SR
SW-620 = test system: SW-620
T47D = test system: T47D
TK-10 = test system: TK-10
U-251 = test system: U-251
UACC-257 = test system: UACC-257
UACC-62 = test system: UACC-62
UO-31 = test system: UO-31
LOX IMVI = test system: LOX IMVI
Malme-3M = test system: Malme-3M

CCOC(=O)CSc1nc(-c2ccccc2)c(C#N)c(=O)[nH]1
GI50 (786-0): > 100 µM (inactive)
GI50 (A498): > 100 µM (inactive)
GI50 (A549): > 100 µM (inactive)
GI50 (ACHN): > 100 µM (inactive)
GI50 (BT-549): > 100 µM (inactive)
GI50 (CAKI-1): > 100 µM (inactive)
GI50 (CCRF-CEM): > 100 µM (inactive)
GI50 (COLO 205): > 100 µM (inactive)
GI50 (DU-145): > 100 µM (inactive)
GI50 (EKVX): > 100 µM (inactive)
GI50 (HCC 2998): > 100 µM (inactive)
GI50 (HCT-116): > 100 µM (inactive)
GI50 (HCT-15): > 100 µM
GI50 (HL-60): > 100 µM (inactive)
GI50 (HOP-62): > 100 µM (inactive)
GI50 (HOP-92): > 100 µM (inactive)
GI50 (HT-29): > 100 µM (inactive)
GI50 (Hs-578T): > 100 µM (inactive)
GI50 (IGROV-1): > 100 µM (inactive)
GI50 (K562): > 100 µM (inactive)
GI50 (KM12): > 100 µM (inactive)
GI50 (M14): > 100 µM (inactive)
GI50 (MCF7): > 100 µM (inactive)
GI50 (MDA-MB-231): > 100 µM (inactive)
GI50 (MDA-MB-435): > 100 µM (inactive)
GI50 (MOLT-4): > 100 µM (inactive)
GI50 (NCI-H226): > 100 µM (inactive)
GI50 (NCI-H23): > 100 µM (inactive)
GI50 (NCI-H460): > 100 µM (inactive)
GI50 (NCI-H522): 21.4 µM (inactive)
GI50 (NCI/ADR-RES): > 100 µM (inactive)
GI50 (OVCAR-3): > 100 µM (inactive)
GI50 (OVCAR-4): > 100 µM (inactive)
GI50 (OVCAR-5): > 100 µM (inactive)
GI50 (OVCAR-8): > 100 µM (inactive)
GI50 (PC-3): > 100 µM (inactive)
GI50 (RPMI-8226): > 100 µM (inactive)
GI50 (RXF 393): > 100 µM (inactive)
GI50 (SF-268): > 100 µM (inactive)
GI50 (SF-295): > 100 µM (inactive)
GI50 (SF-539): > 100 µM (inactive)
GI50 (SK-MEL-28): > 100 µM (inactive)
GI50 (SK-MEL-2): > 100 µM (inactive)
GI50 (SK-MEL-5): > 100 µM (inactive)
GI50 (SK-OV-3): > 100 µM (inactive)
GI50 (SN12C): > 100 µM (inactive)
GI50 (SNB-19): > 100 µM (inactive)
GI50 (SNB-75): > 100 µM (inactive)
GI50 (SR): > 100 µM (inactive)
GI50 (SW-620): > 100 µM (inactive)
GI50 (T47D): > 100 µM (inactive)
GI50 (TK-10): > 100 µM (inactive)
GI50 (U-251): > 100 µM (inactive)
GI50 (UACC-257): > 100 µM (inactive)
GI50 (UACC-62): > 100 µM (inactive)
GI50 (UO-31): > 100 µM (inactive)

C[N+]1(c2ccccc2)C=C(c2ccccc2)SC1=S (configuration not stated)
GI50 (786-0): > 100 µM (inactive)
GI50 (A498): 6.12 µM (inactive)
GI50 (A549): > 100 µM (inactive)
GI50 (ACHN): > 100 µM (inactive)
GI50 (BT-549): > 100 µM (inactive)
GI50 (CAKI-1): > 100 µM (inactive)
GI50 (COLO 205): 23.1 µM (inactive)
GI50 (DU-145): 3.9 µM (inactive)
GI50 (EKVX): 18.1 µM (inactive)
GI50 (HCC 2998): > 100 µM (inactive)
GI50 (HCT-116): > 100 µM (inactive)
GI50 (HCT-15): > 100 µM
GI50 (HL-60): > 100 µM (inactive)
GI50 (HOP-62): > 100 µM (inactive)
GI50 (HT-29): 7.43 µM (inactive)
GI50 (Hs-578T): 66.1 µM (inactive)
GI50 (IGROV-1): > 100 µM (inactive)
GI50 (K562): 42.7 µM (inactive)
GI50 (KM12): > 100 µM (inactive)
GI50 (LOX IMVI): > 100 µM (inactive)
GI50 (M14): > 100 µM (inactive)
GI50 (MCF7): 41.7 µM (inactive)
GI50 (MDA-MB-231): > 100 µM (inactive)
GI50 (MDA-MB-435): > 100 µM (inactive)
GI50 (Malme-3M): 73.1 µM (inactive)
GI50 (NCI-H226): > 100 µM (inactive)
GI50 (NCI-H23): > 100 µM (inactive)
GI50 (NCI-H460): 95.7 µM (inactive)
GI50 (NCI-H522): 30.6 µM (inactive)
GI50 (NCI/ADR-RES): > 100 µM (inactive)
GI50 (OVCAR-3): 8.22 µM (inactive)
GI50 (OVCAR-5): > 100 µM (inactive)
GI50 (OVCAR-8): > 100 µM (inactive)
GI50 (PC-3): > 100 µM (inactive)
GI50 (RPMI-8226): 21 µM (inactive)
GI50 (RXF 393): 1.87 µM (inactive)
GI50 (SF-268): > 100 µM (inactive)
GI50 (SF-295): > 100 µM (inactive)
GI50 (SF-539): > 100 µM (inactive)
GI50 (SK-MEL-28): 7.33 µM (inactive)
GI50 (SK-MEL-2): 58.3 µM (inactive)
GI50 (SK-MEL-5): 33.4 µM (inactive)
GI50 (SN12C): > 100 µM (inactive)
GI50 (SNB-19): > 100 µM (inactive)
GI50 (SR): > 100 µM (inactive)
GI50 (SW-620): > 100 µM (inactive)
GI50 (T47D): 1.67 µM (inactive)
GI50 (TK-10): > 100 µM (inactive)
GI50 (U-251): > 100 µM (inactive)
GI50 (UACC-257): 48.9 µM (inactive)
GI50 (UACC-62): > 100 µM (inactive)
GI50 (UO-31): > 100 µM (inactive)

Cn1c2ccccc2c2c3c(c4c5ccccc5n(C)c4c21)C(=O)NC3=O
GI50 (786-0): 3.89 µM (inactive)
GI50 (A549): > 19.7 µM (inactive)
GI50 (BT-549): > 42.4 µM (inactive)
GI50 (CAKI-1): 0.0256 µM (active)
GI50 (CCRF-CEM): > 100 µM (inactive)
GI50 (COLO 205): > 72.6 µM (inactive)
GI50 (DU-145): > 100 µM (inactive)
GI50 (EKVX): 10.9 µM (inactive)
GI50 (HCC 2998): > 33.7 µM (inactive)
GI50 (HCT-116): > 64.1 µM (inactive)
GI50 (HCT-15): > 100 µM
GI50 (HOP-62): 12.2 µM (inactive)
GI50 (HOP-92): > 36.7 µM (inactive)
GI50 (HT-29): > 32.5 µM (inactive)
GI50 (Hs-578T): 24.8 µM (inactive)
GI50 (IGROV-1): 5.71 µM (inactive)
GI50 (K562): > 54.6 µM (inactive)
GI50 (KM12): 3.96 µM (inactive)
GI50 (LOX IMVI): > 34.8 µM (inactive)
GI50 (M14): > 41.3 µM (inactive)
GI50 (MCF7): 37.8 µM (inactive)
GI50 (MDA-MB-231): 13.4 µM (inactive)
GI50 (MDA-MB-435): > 42.7 µM (inactive)
GI50 (MOLT-4): > 100 µM (inactive)
GI50 (Malme-3M): 20.5 µM (inactive)
GI50 (NCI-H226): 40.7 µM (inactive)
GI50 (NCI-H23): 15.1 µM (inactive)
GI50 (NCI-H460): 7.6 µM (inactive)
GI50 (NCI-H522): 21.2 µM (inactive)
GI50 (NCI/ADR-RES): > 45.3 µM (inactive)
GI50 (OVCAR-4): 5.3 µM (inactive)
GI50 (OVCAR-5): 72.8 µM (inactive)
GI50 (OVCAR-8): 18.7 µM (inactive)
GI50 (PC-3): > 31.4 µM (inactive)
GI50 (RPMI-8226): > 51.9 µM (inactive)
GI50 (RXF 393): 0.0589 µM (active)
GI50 (SF-268): 97.5 µM (inactive)
GI50 (SF-295): 20.4 µM (inactive)
GI50 (SF-539): 10.2 µM (inactive)
GI50 (SK-MEL-28): > 65.2 µM (inactive)
GI50 (SK-MEL-2): > 26.5 µM (inactive)
GI50 (SK-MEL-5): 20.7 µM (inactive)
GI50 (SK-OV-3): 5.35 µM (inactive)
GI50 (SN12C): > 37.9 µM (inactive)
GI50 (SNB-19): 15.3 µM (inactive)
GI50 (SNB-75): 29 µM (inactive)
GI50 (SR): < 0.01 µM (active)
GI50 (SW-620): > 74.6 µM (inactive)
GI50 (T47D): 46.1 µM (inactive)
GI50 (TK-10): 18.2 µM (inactive)
GI50 (U-251): 16.8 µM (inactive)
GI50 (UACC-257): > 65.2 µM (inactive)
GI50 (UACC-62): > 32.9 µM (inactive)
GI50 (UO-31): > 54.2 µM (inactive)
